We go through three compounds from article PMC4506092, “Utilizing Chemical Genomics to Identify Cytochrome b as a Novel Drug Target for Chagas Disease” (PLoS Pathogens, 2015).

Structures are written as SMILES.

For data set [1], the system named is T. cruzi mutant complex III (cytochrome b L197F). Put plainly: T. cruzi complex III activity (decylubiquinol / cytochrome c reaction), GNF7686-resistant. The class given is biochemical, Trypanosoma cruzi. The conditions noted are these: digitonin-permeabilized epimastigotes. The procedure: (§1) T. cruzi epimastigotes ([…], density of 5 × 10^7 parasites / mL) were harvested by centrifugation (800 × g for 5 minutes at 4°C) and resuspended at 10 mg / mL of protein in buffer A containing 0.1 mg digitonin / mg protein. The parasites were then incubated with the detergent for 10 minutes at 26°C. The pellet fraction was collected by centrifugation (13,000 × g for 5 min at 4°C) and immediately used in the complex III assay.
(§2) Complex III activity was monitored using a coupled decylubiquinol / cytochrome c reaction. Decylubiquinone was first reduced to decylubiquinol as described. […] The reduction of cytochrome c was monitored at 550 nm using the SpectraMax Plus384 absorbance microplate reader. Blank samples containing all components excluding decylubiquinol were processed in parallel and absorbance values were subtracted from sample absorbance values to specifically measure […] reduction of cytochrome c. All sample and blank wells were prepared in triplicate. For IC50 determination, the slope of the linear portion of the corrected respiration trace was determined, and normalized to the slope obtained for 0.2% DMSO condition.

Data set [2] relates to rat skeletal muscle mitochondria respiration. The data set is described as follows: Respiration of isolated rat skeletal muscle mitochondria (oxygen consumption). The class given is biochemical. The conditions noted are these: mitochondria from rat skeletal muscle. The procedure:
GNF7686 and cytochrome b inhibitors (0.2% DMS0 final concentration) were added to 384-well assay plates containing 20 μL of assay buffer (250 mM sucrose, 15 mM KCl, 5 mM MgCl2, 1 mM EGTA, 30 mM K2HPO4, pH 7.4) and allowed to dissolve for two hours. Meanwhile, T. cruzi epimastigotes were harvested (800 × g for 5 min at 4°C), washed twice with buffer A (10 mM Tris-HCl, pH = 7.4, 0.23 M mannitol, 0.07 M sucrose, 0.2 mM EDTA, 0.2% bovine serum albumin, 0.5 mM phenylmethanesulfonyl fluoride), and finally resuspended in buffer A at a final concentration of 150 × 10^6 epimastigotes / mL. […] The assay plate was transferred to a Gemini XPS fluorescence plate reader (Molecular Devices) and read at 3 minute intervals at excitation and emission wavelengths of 380 nm and 650 nm, respectively, for 30 minutes at 37°C. The slope for the linear portion of time course of fluorescence increase (rate of oxygen consumption) was calculated after subtraction of blank well values. […]
Sprague Dawley rats were euthanized and skeletal muscle (from hind legs) was removed and stored in CP1 buffer (0.1 M KCl, 0.05 M Tris, 2 mM EGTA, pH 7.4 at 4°C) on ice. […] Respiration in isolated rat mitochondria was measured using the same protocol as described for T. cruzi epimastigotes using 150 μg protein / sample.

Data set [3] concerns T. cruzi intracellular amastigotes (GNF7686-resistant, DR). The data set is described as follows: T. cruzi intracellular amastigote efficacy assay in NIH/3T3 cells, GNF7686-resistant strain. The class given is cell-based. Particulars: Trypanosoma cruzi, NIH3T3, intracellular amastigotes in NIH/3T3, 48-hour treatment. The procedure: To determine compound efficacy on T. cruzi intracellular amastigotes, NIH/3T3 cells were seeded (1,000 cells / well, 40 μL) into microscopy-grade, clear bottom, 384-well plates (Greiner) in RPMI-1640 medium containing 5% heat-inactivated fetal bovine serum and 100 IU penicillin / 100 μg streptomycin per mL. Plates were incubated overnight at 37°C / 5% CO2. Cells were infected with T. cruzi trypomastigotes at a multiplicity of infection (MOI) of 10 for the wild-type strain, and 20 for the GNF7686-resistant mutant strain. After six hours of infection (at 37°C / 5% CO2), the plates were washed by aspirating the medium and replacing with fresh screening medium to remove remaining extracellular trypomastigotes. The plates with infected cells were incubated overnight (37°C / 5% CO2) and compounds dissolved in DMSO were added to plate wells on the following day (0.2% DMSO final concentration). […] The plates were then scanned using the Evotec Opera High Content Screening System (Perkin Elmer) and amastigote proliferation was assessed by counting parasites within the 3T3 cells using CellProfiler version 2.1.0 cell image analysis software. […]

Data set [4] deals with T. cruzi cytochrome bc1 (complex III), wild-type (Trypanosoma cruzi, UniProt Q9TED7). The data set is described as follows: T. cruzi complex III activity (decylubiquinol / cytochrome c reaction), wild-type. Particulars: digitonin-permeabilized epimastigotes. Format: biochemical. The procedure:
as §1, §2

A short description of data set [5]: in vivo. The conditions noted are these: mouse.

T. cruzi cytochrome bc1 (complex III), wild-type, sequence (Q4DU59 entry or part of it): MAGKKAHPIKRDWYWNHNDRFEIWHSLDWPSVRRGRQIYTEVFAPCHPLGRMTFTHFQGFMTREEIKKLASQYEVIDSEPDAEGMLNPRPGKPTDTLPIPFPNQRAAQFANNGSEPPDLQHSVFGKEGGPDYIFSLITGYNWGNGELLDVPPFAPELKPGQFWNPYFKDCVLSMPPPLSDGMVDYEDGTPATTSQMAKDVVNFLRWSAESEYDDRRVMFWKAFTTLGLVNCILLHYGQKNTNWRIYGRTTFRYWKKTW
T. cruzi cytochrome bc1 (complex III), wild-type, sequence (Q9TED7 entry or part of it): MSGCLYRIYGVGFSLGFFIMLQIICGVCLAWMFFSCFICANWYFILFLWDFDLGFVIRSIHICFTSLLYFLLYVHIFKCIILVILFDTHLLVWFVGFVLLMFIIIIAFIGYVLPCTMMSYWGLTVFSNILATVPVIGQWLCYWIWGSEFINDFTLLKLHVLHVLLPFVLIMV

For the compound `CCCCCC[C@H]1C(=O)O[C@H](C)[C@H](NC(=O)c2cccc(NC=O)c2O)C(=O)O[C@@H](C)[C@@H]1OC(=O)CC(C)C` [Antimycin A], the “Loss of potency on complex III, mutant vs wild-type” value in data set [1] is ~ 100 fold. The IC50 in data set [2] (read-out: Rat mitochondrial respiration IC50) was 810 nM.
On to `O=C(Cn1ccnc1[N+](=O)[O-])NCc1ccccc1` [Benznidazole], for which the response in data set [3] was half-maximal at 820 ± 130 nM (EC50).
Regarding `CCc1c(C)c(C#N)c2nc3ccccc3n2c1O` [GNF7686], in data set [3], a half-maximal response (EC50) required 660 ± 120 nM. This compound came in with an IC50 in data set [4] of 400 nM. For the same compound, the “Loss of potency on complex III, mutant vs wild-type” value in data set [1] turned out to be 20 fold. In addition, in data set [2], the “Mammalian (rat) mitochondrial respiration: no effect on oxygen consumption up to” value was over 25 µM. The clearance – broadly, the rate of elimination divided by the concentration – in data set [5] turned out to be 53 mL/min/kg. Moreover, the bioavailability (in general, dose-corrected exposure relative to a reference, in per cent) in data set [5] (po) came to 6%.
